Where a name gives a salt, the structure may show the parent alone. Read-outs that look alike come from different tables or passages of the source.
Experiments:
MCL-1 = MCL-1 (Homo sapiens (Human), UniProt Q07820, K194A/K197A/R201A); assay: Protein-protein interaction assay MCL-1/Noxa BH3 peptide (MCL-1 assay), TR-FRET; type: binding; details: IC50, median; MCL-1/Noxa BH3 TR-FRET
Description: The dose-dependent inhibition by the compounds described in this invention of the interaction between MCL-1 and the BH3 domain of Noxa (both human) was determined using a steady state binding competition assay with time-resolved fluorescence energy transfer (TR-FRET) readout. […] The MBP-MCL-1 was purchased from Beryllium (Bedford, Mass., USA). The expression and purification of this protein construct has been described elsewhere (DOI:10.1371/journal.pone.0125010). The Noxa BH3-derived peptide can be obtained from e.g. Biosyntan (Berlin, Germany), 50812.1.
For that, 100-fold concentrated DMSO solutions were prepared by serial dilutions (1:3.4) of a 2 mM stock solution in a clear, 384-well microtiter plate (Greiner Bio-One, Frickenhausen, Germany). From there, 50 nl were transferred in a dark test plate (Greiner Bio-One, Frickenhausen, Germany). […] This was followed by a 10-minute incubation step at 22° C. for pre-equilibration of the putative complex between MBP-MCL-1 and the compounds.
The mixture was incubated in the dark for one hour at 22° C. and then overnight at 4° C.
The resulting data (ratio) were normalized, taking 0% inhibition as the mean value of control measurements (usually 32 data points) where all reagents were included. In this case 50 nl DMSO were used instead of compounds. […] IC50 values were determined by regression analysis based on a 4 parameter equation (minimum, maximum, IC50, Hill; Y=Max+(Min−Max)/(1+(X/IC50)^Hill) using the Screener Software (Genedata).

SUDHL5 cells [1] = assay: Antiproliferation assay (CellTiter-Glo, 72 h), SUDHL5; type: cell-based; details: IC50, median; SUDHL5, 72 h; read-out: Antiproli SUDHL5 [M] (median)
Method in brief: (§1)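 Proliferation is determined by CellTiter-Glo luminescence following 72 h incubation with compound at 37 °C, relative to a time-zero plate measured at plating.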

SUDHL5 cells [2] = assay: Induction of caspase-3/7 activity (Caspase-Glo 3/7), SUDHL5; type: cell-based; details: EC50, median; SUDHL5, 3 h treatment
Method in brief: (§2)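 Apoptosis induction was gauged via caspase-3/7 activity (Caspase-Glo 3/7) following a 3 h compound incubation at 37 °C. Background from medium-only wells was removed from each value.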

SUDHL10 cells [3] = assay: Induction of caspase-3/7 activity (Caspase-Glo 3/7), SUDHL10; type: cell-based; details: EC50, median; SUDHL10, 3 h treatment
Method in brief: as §2

MV-4-11 cells = assay: Antiproliferation assay (CellTiter-Glo, 72 h), MV-4-11; type: cell-based; details: IC50, median; MV-4-11, 72 h; read-out: Antiproli MV-4-11 [M] median
Description: (§3) Assessment of the Anti-Proliferative Effect of Compounds in Different Cell Lines
(§4) The impact of compounds on the proliferation of different cell lines was assessed using the CellTiter-Glo® Luminescent Cell Viability reagent from Promega (G7573).
(§5) In parallel, cells were plated in a reference (day 0) plate for time zero determination.
(§6) Rim wells were excluded. The cells were incubated for 72 h hours in a humidified incubator at 37° C. The day 0 plate was measured by adding 30 μL/well of CTG solution (CellTiter-Glo® Luminescent Cell Viability reagent, Promega G7573) to time zero wells in the reference plate followed by a 10 minutes incubation and luminescence reading at 0.1 ms. using the PHERAstar FS microplate reader (BMG Labtech).
(§7) After 72 h incubation, the treated plates were measured in the same way as the day 0 plate mentioned above.

HMC-1-8 cells = assay: Antiproliferation assay (CellTiter-Glo, 72 h), HMC-1-8; type: cell-based; details: IC50, median, HMC-1-8, 72 h, read-out: Antiproli HMC-1-8 [M] median
Method in brief: as §1

SNU-389 cells = assay: Antiproliferation assay (CellTiter-Glo, 72 h), SNU-389; type: cell-based; details: read-out: Antiproli SNU-389 [M] median
Description: as §3, §4, §5, §6, §7

SUDHL5 cells [4] = assay: Induction of cytotoxicity (CellTiter-Glo, 5 h), SUDHL5; details: read-out: Cytotox SUDHL5 [M] (median); IC50, median; SUDHL5, 5 h
Description: Therefore, cytotoxicity assays were run in parallel in SUDHL5 and SUDHL10 cells.
The different cell lines were plated in culture medium (RPMI 1640 [GIBCO #22400-089] supplemented with 10% Fetal Bovine Serum) at a density of 3,300 cells in 30 μL/well in a sterile, solid black, flat bottom, polystyrene, TC-treated 384-well microplate (Corning #3571) using Multidrop Combi Reagent Dispenser. As a control, medium without cells was also added to the plate. Cells were incubated in a humidified incubator at 37° C. overnight. […] Rim wells were excluded. The cells were incubated for 5 h hours in a humidified incubator at 37° C. After this incubation, 30 μL of CellTiter-Glo® Luminescent Cell Viability reagent (Promega, G7573) was added to each well using the Multidrop Combi Reagent Dispenser, followed by 15 min incubation on a shaker at room temperature. Finally, luminescence was read at 0.1 ms, with a gain of 3000 using the PHERAstar FS microplate reader (BMG Labtech).

SUDHL10 cells [5] = assay: Induction of cytotoxicity (CellTiter-Glo, 5 h), SUDHL10; details: SUDHL10, 5 h
AMO-1 cells = assay: Antiproliferation assay (CellTiter-Glo, 72 h), AMO-1; type: cell-based; details: IC50, median, AMO-1, 72 h, read-out: Antiproli AMO-1 [M] median
Method in brief: as §1

DMS-114 cells = assay: Antiproliferation assay (CellTiter-Glo, 72 h), DMS-114; type: cell-based; details: Homo sapiens, DMS-114, 72 h; read-out: Antiproli DMS-114 [M] median
Description: as §3, §4, §5, §6, §7

MCL1 protein = MCL1 protein (Homo sapiens (Human), UniProt Q07820); assay: PIxEL: protein-protein interaction in permeabilized cells by ELISA (MCL1/biotin-BIM BH3 peptide, RKO cells); type: cell-based; details: IC50, median, serum free
Chain of MCL1 protein (Q07820 whole entry): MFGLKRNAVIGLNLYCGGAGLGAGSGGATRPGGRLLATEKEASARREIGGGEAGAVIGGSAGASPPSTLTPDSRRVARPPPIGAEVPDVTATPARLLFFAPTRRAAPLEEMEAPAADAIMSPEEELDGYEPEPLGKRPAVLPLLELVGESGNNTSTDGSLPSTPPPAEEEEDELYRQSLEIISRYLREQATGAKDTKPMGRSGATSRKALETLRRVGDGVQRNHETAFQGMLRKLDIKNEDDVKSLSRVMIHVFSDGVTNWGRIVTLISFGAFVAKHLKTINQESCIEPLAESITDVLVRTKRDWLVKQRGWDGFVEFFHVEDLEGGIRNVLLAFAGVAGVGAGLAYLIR
Description: PIxEL: Protein-Protein Interaction in Permeabilized Cells by ELISA
Most MCL1 protein molecules are localized at the mitochondria outer membrane and sequester pro-apoptotic proteins through binding of their BCL2 homology domain 3 (BH3 domain). MEB buffer (150 mM mannitol, 10 mM HEPES pH 7.5, 50 mM KCl, 20 μM EDTA, 20 μM EGTA, 5 mM potassium succinate, 0.1% protease-free BSA (SIGMA) with low dose digitonin (0.002%) permeabilizes plasma membrane while leaves live mitochondria, where MCL1 maintains its native localization and conformation. Unlike biophysical assays (e.g. TR-FRET) that use truncated recombinant MCL1 protein, this assay uses full length endogenous MCL1 protein at mitochondria outer membrane. It measures the interaction between MCL1 protein and biotinylated BIM BH3 peptide. Compounds can compete with BIM BH3 peptide to bind to MCL1 protein.
On day 1, RKO colon cancer cell line cells were plated at 0.8 million cells/ml, 100 μl/well in 96-well flat bottom TC plates (Corning). MCL1 antibody (Santa Cruz sc-12756) were diluted at 200 fold (final concentration 1 μg/ml) in carbonate buffer (Thermo Fisher Scientific, pH 9.6), and 50 μl of diluted antibody was added to each well of high bind ELISA plates ([…]). Each plate was tapped to make sure liquid covering entire bottom of wells and incubate at 37° C. overnight.
On the second day, MCL1 antibody was washed from ELISA plate. 250 μl Odyssey® Blocking Buffer (PBS) (Li-Cor) was added to each well, incubated at room temperature for at least 1 hour, then washed once with 250 μl 1×PBST. Plates with RKO cells were gently washed once with 100 μl/well PBS, once with 100 μl/well MEB buffer without digitonin, then 100 μl of MEB buffer with 0.002% digitonin was gently added to each well. Compounds were added with HP Tecan compound dispenser in 3-fold dilution series, highest dose 30 μM, 10-dose per compound in quadruplicates. Biotin-BIM peptide (synthesized by 21st Century) was added with HP Tecan compound dispenser at 0.2 μM immediately after the addition of compounds. Plates were rocked for 1 hour at room temperature. Then MEB buffer was aspirated and 50 μl of CHAPS buffer (50 mM Tris-Cl, pH 7.4, 150 mM NaCl, 1% CHAPS, 1 mM EDTA, 1 mM EGTA, cOmplete protease inhibitors (Roche), PhosSTOP (Roche)) was added to each well. Plates were rocked for 1 hour at 4° C., then 45 μl cell lysate from each well were transferred to ELISA plates coated with MCL1 antibody. Plates were incubated overnight in the cold room with rocking.
On the third day, ELISA plates were washed once with 250 μl 1×PBST. Streptavidin-poly-HRP (Thermo Fisher Scientific) was diluted to 20 ng/ml in Odyssey blocking buffer plus 0.05% Triton-100, and 100 μl was added to each well of the ELISA plate. Plates were incubated at RT from 1 hour with rocking, then washed with 100 μL 1×PBST for 3 times. Each SuperSignal ELISA Femto Maximum Sensitivity substrate was added to a 50-ml tube and mixed, then 100 μl of mixed substrate was added to each well. Plates were shaken for 1 minute then luminescence was measured by Envision plate reader […]. Signal of each well were normalized by no-compound control and no-cell control. IC50 was calculated using Graphic Pad PRISM software.

[6] = read-out: Cytotox SUDHL10 [M] (median), IC50, median

Chain of MCL-1 (Q07820 whole entry K194A/K197A/R201A, looked up, the tested form may be a part): as the sequence (Q07820 whole entry) above, with K194A, K197A, R201A counted along it

`CCc1c2c(nn1C)CN(CCN1CCOCC1)CCCCn1c(C(=O)O)c(CCCOc3cccc4cc(F)ccc34)c3ccc(Cl)c-2c31` (single isomer, unassigned; enantiomer 2) [Example 143, 4-chloro-3-ethyl-7-{3-[(6-fluoronaphthalen-1-yl)oxy]propyl}-2-methyl-14-[2-(morpholin-4-yl)ethyl]-10,11,12,13,14,15-hexahydro-2H-pyrazolo[3′,4′:8,9][1,6]diazacycloundecino[10,11,1-hi]indole-8-carboxylic acid (Enantiomer 2)] gave an IC50 (MCL-1) of 62 nM and an IC50 (SUDHL5 cells [1]) of 9.4e-06 M.

Compound `Cc1c2c(nn1C)COCCCCn1c(C(=O)O)c(CCCOc3cccc4cc(F)ccc34)c3ccc(Cl)c-2c31` (single isomer, unassigned; enantiomer 2) [Example 17, (−)-4-chloro-7-{3-[(6-fluoronaphthalen-1-yl)oxy]propyl}-2,3-dimethyl-2,10,11,12,13,15-hexahydropyrazolo[4′,3′:9,10][1,6]oxazacycloundecino[8,7,6-hi]indole-8-carboxylic acid-N-ethylethanamine salt (Enantiomer 2)] has an EC50 (SUDHL5 cells [2]) of 290 nM, an EC50 (SUDHL10 cells [3]) of 380 nM and an IC50 (SUDHL5 cells [1]) of 2.1e-07 M. It also gave an IC50 (MV-4-11 cells) of 6.7e-06 M, an IC50 (HMC-1-8 cells) of 1.2e-06 M and an IC50 (SNU-389 cells; IC50, median, SNU-389, 72 h) of 9.86e-07 M. The IC50 (SUDHL5 cells [4]) was 2.2e-07 M and the IC50 (SUDHL10 cells [5]; [6]) was 6.6e-07 M.

With `Cc1c2c(nn1C)COCCCCn1c(C(=O)O)c(CCCOc3cccc4ccccc34)c3ccc(Cl)c-2c31` (single isomer, unassigned; enantiomer 2) [Example 27, 4-chloro-2,3-dimethyl-7-[3-(naphthalen-1-yloxy)propyl]-2,10,11,12,13,15-hexahydropyrazolo-[4′,3′:9,10][1,6]oxazacycloundecino[8,7,6-hi]indole-8-carboxylic acid-N-ethylethanamine salt (Enantiomer 2)] the IC50 (SUDHL5 cells [1]) was 7.8e-06 M and the IC50 (MV-4-11 cells) was 1.61e-05 M.

For `Cc1c2c(nn1C)CN(C)CCCCn1c(C(=O)O)c(CCCOc3cccc4ccccc34)c3ccc(Cl)c-2c31` (single isomer, unassigned; enantiomer 2) [Example 13, (−)-4-chloro-2,3,14-trimethyl-7-[3-(naphthalen-1-yloxy)propyl]-10,11,12,13,14,15-hexahydro-2H-pyrazolo[3′,4′:8,9][1,6]diazacycloundecino[10,11,1-hi]indole-8-carboxylic acid-N-ethylethanamine salt (Enantiomer 2)], the IC50 (SUDHL5 cells [1]) was 6.4e-06 M, the IC50 (MV-4-11 cells) was 1.22e-05 M and the IC50 (SUDHL5 cells [4]) was 6.9e-06 M.

Work on `CCc1c2c(nn1C)COCC(O)CCn1c(C(=O)O)c(CCCOc3cccc4cc(F)ccc34)c3ccc(Cl)c-2c31` (centres unmarked) [Example 100, 4-chloro-3-ethyl-7-{3-[(6-fluoronaphthalen-1-yl)oxy]propyl}-12-hydroxy-2-methyl-2,10,11,12,13,15-hexahydropyrazolo[4′,3′:9,10][1,6]oxazacycloundecino[8,7,6-hi]indole-8-carboxylic acid-N-ethylethanamine salt] yielded an EC50 (SUDHL5 cells [2]) of 220 nM, an EC50 (SUDHL10 cells [3]) of 120 nM and an IC50 (SUDHL5 cells [1]) of 1.9e-07 M. For the same compound, the IC50 (AMO-1 cells) was 6.7e-07 M, the IC50 (HMC-1-8 cells) was 5e-06 M and the IC50 (SNU-389 cells; 72 h) was 1.18e-06 M. For the same compound, the IC50 (DMS-114 cells) was 1.85e-07 M, the IC50 (SUDHL5 cells [4]) was 1.8e-07 M and the IC50 (SUDHL10 cells [5]; [6]) was 1.8e-07 M.

`Cc1c2c(nn1C)CN(C)CCCCn1c(C(=O)O)c(CCCOc3cccc4cc(F)ccc34)c3ccc(Cl)c-2c31` (racemic) [Example 30, (rac)-4-chloro-7-{3-[(6-fluoronaphthalen-1-yl)oxy]propyl}-2,3,14-trimethyl-10,11,12,13,14,15-hexahydro-2H-pyrazolo[3′,4′:8,9][1,6]diazacycloundecino[10,11,1-hi]indole-8-carboxylic acid] showed an IC50 (MCL1 protein) of 227 nM, an IC50 (AMO-1 cells; Homo sapiens, AMO1, 72 h) of 4.2e-07 M and an IC50 (HMC-1-8 cells; 72 h) of 1.6e-06 M.

In the case of `Cc1c2c(nn1C)COCC1CC1Cn1c(C(=O)O)c(CCCOc3cccc4ccccc34)c3ccc(Cl)c-2c31` (single isomer, unassigned; stereoisomer 2) [Example 66, (9aR,10aS or 9aS,10aR)-3-chloro-4,5-dimethyl-14-{3-[(naphthalen-1-yl)oxy]propyl}-5,7,9a,10,10a,11-hexahydro-9H-cyclopropa[3,4]pyrazolo[4′,3′:9,10][1,6]oxazacycloundecino-[8,7,6-hi]indole-13-carboxylic acid—Stereoisomer 2], the IC50 (MCL1 protein) is reported as 1740 nM, the IC50 (HMC-1-8 cells) is reported as 1e-06 M and the IC50 (SNU-389 cells; 72 h) is reported as 5.76e-07 M. It also gave an IC50 (DMS-114 cells) of 3.15e-07 M and an IC50 (SUDHL10 cells [5]; Homo sapiens, SU-DHL10, 5 h, read-out: Cytotox SUDHL10 [M] (median), IC50, median) of 1.4e-07 M.

Source: patent US11478451B1, “Macrocyclic chlorine substituted indole derivatives” (Bayer Aktiengesellschaft, priority 2017, dated 2022)
